Experimental data taken from US20060252807A1, “Novel ortho-terphenyl inhibitors of p38 kinase and methods of treating inflammatory disorders” (Kalypsys, Inc., priority 2005, published 2006).
pIC50: −log10 of the molar value.

What follows are compounds tested against T1, active p38 alpha enzyme (Upstate Biotechnology) (Homo sapiens, UniProt Q16539) (assay: p38α biochemical assay (ATP turnover, luminescent detection, Cambrex PKlight)). Conditions: p38α biochemical assay, Table 1 Biological Activity.
T1 construct: purchased Upstate Biotechnology
In short: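 Luminescent PKlight readout of total ATP consumption follows a 2 h, 30C kinase reaction. Enzyme and MapkapK2 substrate run with 1.4 uM ATP (final) in buffer containing Mg2+, Ca2+, chelators, glycerol, reducing agent and BSA; test compounds added by pintool from DMSO.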

T1 sequence (Q16539 whole entry): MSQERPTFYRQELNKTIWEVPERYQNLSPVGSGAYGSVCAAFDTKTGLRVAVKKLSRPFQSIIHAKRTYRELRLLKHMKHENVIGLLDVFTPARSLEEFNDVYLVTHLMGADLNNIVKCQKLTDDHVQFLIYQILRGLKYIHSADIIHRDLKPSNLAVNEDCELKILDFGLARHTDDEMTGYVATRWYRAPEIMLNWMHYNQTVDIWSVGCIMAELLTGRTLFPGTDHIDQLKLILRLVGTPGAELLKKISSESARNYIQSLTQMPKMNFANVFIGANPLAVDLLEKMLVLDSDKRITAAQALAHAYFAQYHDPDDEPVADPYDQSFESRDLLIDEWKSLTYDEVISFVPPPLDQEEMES

How did the pIC50 turn out when CC(C)NC(=O)c1csc(-c2oc(CN3CCN(C(=O)Cc4ccc(Br)cc4)CC3)nc2-c2ccc(F)cc2)n1 [Example 531] was run?
The pIC50 was no less than 6.00.

How did the pIC50 turn out when CC(C)NC(=O)c1csc(-c2c(-c3ccc(F)cc3)noc2CN2CCNCC2)n1 [Example 28, 2-|3-(4-Fluoro-phenyl)-5-piperazin-1-ylmethyl-isoxazol-4-yl|-thiazole-4-carboxylic acid isopropylamide] was run?
The pIC50 was no less than 6.00.

CC(C)NC(=O)c1csc(-c2oc(CNC(=O)c3ccc(C#N)cc3)nc2-c2ccc(F)cc2)n1 [Example 129] was tested. Which pIC50 did it give?
Its pIC50 is no less than 6.00.

How did the pIC50 turn out when CC(C)NC(=O)c1csc(-c2c(-c3ccc(F)cc3)noc2CNC(=O)c2cc([N+](=O)[O-])ccc2Cl)n1 [Example 746] was run?
Its pIC50 is less than 6.00.

With CC(C)NC(=O)c1csc(-c2oc(CN3CCN(C(=O)c4c(F)c(F)c(F)c(F)c4F)CC3)nc2-c2ccc(F)cc2)n1 [Example 519] as the compound, how does the pIC50 read?
The pIC50 was no less than 6.00.

CCCCCc1ccc(C(=O)N2CCN(Cc3nc(-c4ccc(F)cc4)c(-c4nc(C(=O)NC(C)C)cs4)o3)CC2)cc1 [Example 494] was tested. Which pIC50 did it give?
The pIC50 was less than 6.00.

CC(C)NC(=O)c1csc(-c2oc(CNC(=O)/C=C/c3ccccc3F)nc2-c2ccc(F)cc2)n1 [Example 178] was tested. Which pIC50 did it give?
The pIC50 was no less than 6.00.

How did the pIC50 turn out when CC(C)NC(=O)c1csc(-c2c(-c3ccc(F)cc3)noc2CNC(=O)C2CCc3ccccc32)n1 (stereo not shown) [Example 639] was run?
Its pIC50 is less than 6.00.

With CC(C)NC(=O)c1csc(-c2c(-c3ccc(F)cc3)noc2CNC(=O)C2CCCCC2)n1 [Example 593] as the compound, how does the pIC50 read?
The pIC50 was less than 6.00.

COc1ccc(O)c(C(=O)NCc2onc(-c3ccc(F)cc3)c2-c2nc(C(=O)NC(C)C)cs2)c1 [Example 662] was tested. Which pIC50 did it give?
Its pIC50 is less than 6.00.

How did the pIC50 turn out when CC(=O)c1ccccc1C(=O)N1CCN(Cc2nc(-c3ccc(F)cc3)c(-c3nc(C(=O)NC(C)C)cs3)o2)CC1 [Example 407] was run?
Its pIC50 is no less than 6.00.

CC(C)NC(=O)c1csc(-c2oc(CN3CCN(C(=O)C4CCc5ccccc5C4)CC3)nc2-c2ccc(F)cc2)n1 (stereo not shown) [Example 441] was tested. Which pIC50 did it give?
The pIC50 was no less than 6.00.

How did the pIC50 turn out when CC(C)NC(=O)c1csc(-c2c(-c3ccc(F)cc3)noc2CNC(=O)c2ccccn2)n1 [Example 589] was run?
Its pIC50 is less than 6.00.

With CC(C)NC(=O)c1csc(-c2oc(CNC(=O)C3CN(C(=O)OC(C)(C)C)CCN3)nc2-c2ccc(F)cc2)n1 (stereo not shown) [Example 314] as the compound, how does the pIC50 read?
The pIC50 was no less than 6.00.

How did the pIC50 turn out when Cc1ccc(C(=O)CCC(=O)NCc2onc(-c3ccc(F)cc3)c2-c2nc(C(=O)NC(C)C)cs2)cc1 [Example 731] was run?
The pIC50 was less than 6.00.

Same assay, conditions: p38α kinase; Table 1 Biological Activity

How did the pIC50 turn out when COc1ccc(NCc2onc(-c3ccc(F)cc3)c2-c2nc(C(=O)NC(C)C)cs2)cc1OC [Example 1379] was run?
The pIC50 was less than 6.00.

With CCOc1ccc(OCC)c(NCc2onc(-c3ccc(F)cc3)c2-c2nc(C(=O)NC(C)C)cs2)c1 [Example 1691] as the compound, how does the pIC50 read?
Its pIC50 is less than 6.00.

How did the pIC50 turn out when Cc1cccc(NCc2nc(-c3ccc(F)cc3)c(-c3nc(C(=O)NC(C)C)cs3)o2)c1C [Example 1321] was run?
Its pIC50 is less than 6.00.

How did the pIC50 turn out when CCN(Cc1ccccc1)Cc1nc(-c2ccc(F)cc2)c(-c2nc(C(=O)NC(C)C)cs2)o1 [Example 1225] was run?
Its pIC50 is less than 6.00.

How did the pIC50 turn out when CCCCN(C)Cc1nc(-c2ccc(F)cc2)c(-c2nc(C(=O)NC(C)C)cs2)o1 [Example 1194] was run?
Its pIC50 is less than 6.00.

With CC(C)NC(=O)c1csc(-c2oc(CNCC3CC3)nc2-c2ccc(F)cc2)n1 [Example 1060] as the compound, how does the pIC50 read?
Its pIC50 is less than 6.00.

CC(C)NC(=O)c1csc(-c2c(-c3ccc(F)cc3)n[nH]c2C2CCN(C(=O)c3cccc(Br)c3)CC2)n1 [Example 982] was tested. Which pIC50 did it give?
The pIC50 was less than 6.00.

How did the pIC50 turn out when CC(C)NC(=O)c1csc(-c2oc(CNc3cc(C(F)(F)F)ccc3F)nc2-c2ccc(F)cc2)n1 [Example 1364] was run?
Its pIC50 is less than 6.00.

How did the pIC50 turn out when CC(C)NC(=O)c1csc(-c2oc(CN3CCN(Cc4ccc5c(c4)OCO5)CC3)nc2-c2ccc(F)cc2)n1 [Example 1294] was run?
The pIC50 was less than 6.00.

With CC(C)NC(=O)c1csc(-c2c(-c3ccc(F)cc3)n[nH]c2C2CCN(C(=O)CNC(=O)OC(C)(C)C)CC2)n1 [Example 915] as the compound, how does the pIC50 read?
Its pIC50 is less than 6.00.

COc1ccccc1NC(=O)c1csc(-c2sc(C)nc2-c2ccc(F)cc2)n1 [Example 1974] was tested. Which pIC50 did it give?
Its pIC50 is no less than 6.00.

How did the pIC50 turn out when CC(C)NC(=O)c1csc(-c2c(-c3ccc(F)cc3)n[nH]c2C2CCN(C(=O)C(Cl)(Cl)Cl)CC2)n1 [Example 879] was run?
The pIC50 was less than 6.00.

How did the pIC50 turn out when CC(C)NC(=O)c1csc(-c2oc(CN(Cc3cccnc3)Cc3cccnc3)nc2-c2ccc(F)cc2)n1 [Example 1277] was run?
The pIC50 was less than 6.00.

With Cc1nc(-c2ccc(F)cc2)c(-c2nc(C(=O)N3CCN(c4ccc(C(F)(F)F)cc4)CC3)cs2)s1 [Example 1947] as the compound, how does the pIC50 read?
The pIC50 was less than 6.00.

With COc1ccc(CCNCc2nc(-c3ccc(F)cc3)c(-c3nc(C(=O)NC(C)C)cs3)o2)cc1 [Example 1145] as the compound, how does the pIC50 read?
Its pIC50 is less than 6.00.

How did the pIC50 turn out when CCc1ccccc1NCc1nc(-c2ccc(F)cc2)c(-c2nc(C(=O)NC(C)C)cs2)o1 [Example 1319] was run?
The pIC50 was less than 6.00.

With CC(C)NC(=O)c1csc(-c2c(-c3ccc(F)cc3)noc2CN2CCOCC2)n1 [Example 1509] as the compound, how does the pIC50 read?
The pIC50 was less than 6.00.

With CC(C)NC(=O)c1csc(-c2oc(CNCCc3ccc(F)cc3)nc2-c2ccc(F)cc2)n1 [Example 1127] as the compound, how does the pIC50 read?
Its pIC50 is less than 6.00.

With CC(C)NC(=O)c1csc(-c2oc(CN3CCCCC3CCO)nc2-c2ccc(F)cc2)n1 (stereo not shown) [Example 1223] as the compound, how does the pIC50 read?
Its pIC50 is less than 6.00.

CC(=O)c1cccc(NCc2onc(-c3ccc(F)cc3)c2-c2nc(C(=O)NC(C)C)cs2)c1 [Example 1658] was tested. Which pIC50 did it give?
The pIC50 was no less than 6.00.

With CC(C)NC(=O)c1csc(-c2c(-c3ccc(F)cc3)noc2CNCC#N)n1 [Example 1385] as the compound, how does the pIC50 read?
The pIC50 was no less than 6.00.

How did the pIC50 turn out when Cc1nc(-c2ccc(F)cc2)c(-c2nc(C(=O)NCc3cccc(F)c3)cs2)s1 [Example 1758] was run?
The pIC50 was no less than 6.00.

With Cc1nc(-c2ccc(F)cc2)c(-c2nc(C(=O)NCCC#N)cs2)s1 [Example 1713] as the compound, how does the pIC50 read?
The pIC50 was less than 6.00.

How did the pIC50 turn out when CC(C)NC(=O)c1csc(-c2c(-c3ccc(F)cc3)noc2CN2CCCC(CO)C2)n1 (stereo not shown) [Example 1536] was run?
The pIC50 was less than 6.00.

With CC(C)NC(=O)c1csc(-c2oc(CN3CCN(c4ccc(F)cc4F)CC3)nc2-c2ccc(F)cc2)n1 [Example 1276] as the compound, how does the pIC50 read?
Its pIC50 is less than 6.00.

With CC(C)NC(=O)c1csc(-c2c(-c3ccc(F)cc3)n[nH]c2C2CCN(C(=O)c3ccc(C=O)cc3)CC2)n1 [Example 847] as the compound, how does the pIC50 read?
The pIC50 was no less than 6.00.

With CC(C)NC(=O)c1csc(-c2c(-c3ccc(F)cc3)n[nH]c2C2CCN(C(=O)c3ccc(F)cc3Cl)CC2)n1 [Example 913] as the compound, how does the pIC50 read?
The pIC50 was less than 6.00.

Cc1ccc(S(=O)(=O)NCCNCc2onc(-c3ccc(F)cc3)c2-c2nc(C(=O)NC(C)C)cs2)cc1 [Example 1507] was tested. Which pIC50 did it give?
The pIC50 was less than 6.00.

How did the pIC50 turn out when CC(C)NC(=O)c1csc(-c2c(-c3ccc(F)cc3)noc2CNCCCN2CCCC2=O)n1 [Example 1464] was run?
Its pIC50 is no less than 6.00.

With CC(C)NC(=O)c1csc(-c2c(-c3ccc(F)cc3)noc2CNC(=O)c2cccc(I)c2)n1 [Example 801] as the compound, how does the pIC50 read?
Its pIC50 is less than 6.00.

With CC(C)CNC(=O)c1csc(-c2c(-c3ccc(F)cc3)n[nH]c2C2CCNCC2)n1 [Example 2040] as the compound, how does the pIC50 read?
The pIC50 was less than 6.00.

With Cc1nc(-c2ccc(F)cc2)c(-c2nc(C(=O)NCCC(c3ccccc3)c3ccccc3)cs2)s1 [Example 1831] as the compound, how does the pIC50 read?
Its pIC50 is less than 6.00.

Cc1nc(-c2ccc(F)cc2)c(-c2nc(C(=O)NCC3CCCO3)cs2)s1 (stereo not shown) [Example 1733] was tested. Which pIC50 did it give?
Its pIC50 is no less than 6.00.

CC(C)NC(=O)c1csc(-c2c(-c3ccc(F)cc3)n[nH]c2C2CCN(C(=O)c3ccc([N+](=O)[O-])cc3Cl)CC2)n1 [Example 986] was tested. Which pIC50 did it give?
The pIC50 was less than 6.00.

With CC(C)NC(=O)c1csc(-c2c(-c3ccc(F)cc3)n[nH]c2C2CCN(C(=O)C3CCCO3)CC2)n1 (stereo not shown) [Example 823] as the compound, how does the pIC50 read?
The pIC50 was no less than 6.00.

How did the pIC50 turn out when Cc1nc(-c2ccc(F)cc2)c(-c2nc(C(=O)NC3CCCCC3)cs2)s1 [Example 1732] was run?
Its pIC50 is no less than 6.00.

CC1CC(C)CN(Cc2nc(-c3ccc(F)cc3)c(-c3nc(C(=O)NC(C)C)cs3)o2)C1 (stereo not shown) [Example 1206] was tested. Which pIC50 did it give?
Its pIC50 is less than 6.00.
